Data: patent US9695155B2, “Herbicidal substituted pyrimidinyloxy benzene compounds” (E. I. DU PONT DE NEMOURS AND COMPANY, priority 2013, dated 2017)

Key:
canarygrass = assay: Test D preemergence; assay type: in vivo, Phalaris minor; settings: Phalaris minor, pre-emergence
Outline: (§1)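 After treatment, visual injury versus untreated plants, 0–100 scale, assessed at 7 to 21 days. Applications were made preemergence to silt loam-sown seed and postemergence to seedlings 2–18 cm high in potting medium.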

bromegrass, downy [1] = assay: Test D postemergence; assay type: in vivo, Bromus tectorum; settings: Bromus tectorum, post-emergence, Postemergence, scale 0 to 100 (0 no effect, 100 complete control), read-out: Plant response rating, Bromegrass, Downy
Outline: as §1

green foxtail = assay: Test D preemergence; assay type: in vivo, Setaria viridis; settings: Setaria viridis, pre-emergence
Outline: as §1

wild oat = assay: Test D postemergence; assay type: in vivo, Avena fatua; settings: Avena fatua, post-emergence
Outline: as §1

blackgrass = assay: Test D preemergence; assay type: in vivo, Alopecurus myosuroides; settings: Alopecurus myosuroides, pre-emergence
Outline: as §1

lambsquarters = assay: Test D postemergence; assay type: in vivo, Chenopodium album; settings: Chenopodium album, post-emergence
Outline: as §1

chamomile = assay: Test D postemergence; assay type: in vivo, Matricaria inodora; settings: Tripleurospermum inodorum, post-emergence
Outline: as §1

bluegrass [2] = assay: Test D preemergence; assay type: in vivo, Poa annua; settings: Poa annua, pre-emergence
Outline: as §1

bluegrass [3] = assay: Test D postemergence; assay type: in vivo, Poa annua; settings: Poa annua, post-emergence, Postemergence, scale 0 to 100 (0 no effect, 100 complete control), read-out: Plant response rating, Bluegrass
Outline: as §1

bromegrass, downy [4] = assay: Test D preemergence; assay type: in vivo, Bromus tectorum; settings: Bromus tectorum, pre-emergence
Outline: as §1

spring barley = assay: Test D postemergence; assay type: in vivo, Hordeum vulgare; settings: Hordeum vulgare, post-emergence, Postemergence, scale 0 to 100 (0 no effect, 100 complete control), read-out: Plant response rating, Barley, Spring
Outline: as §1

winter barley = assay: Test D postemergence; assay type: in vivo, Hordeum vulgare; settings: Hordeum vulgare, post-emergence, Postemergence, scale 0 to 100 (0 no effect, 100 complete control), read-out: Plant response rating, Barley, Winter
Outline: as §1

In the case of `FC(F)(F)COc1cnn(-c2ccccc2Oc2ncc(Cl)cn2)c1` [Compound 138, 5-chloro-2-[2-[4-(2,2,2-trifluoroethoxy)-1H-pyrazol-1-yl]phenoxy]pyrimidine], the pest or weed control at 16 g/ha (canarygrass; 16 g ai/ha, scale 0 (no effect) to 100 (complete control), read-out: Plant response rating, Canarygrass) is reported as 10%, the pest or weed control at 31 g/ha (canarygrass; 31 g ai/ha, scale 0-100, read-out: Plant response rating, Canarygrass) is reported as 10% and the pest or weed control at 62 g/ha (canarygrass; 62 g ai/ha, scale 0-100, read-out: Plant response rating, Canarygrass) is reported as 20%. It also gave a pest or weed control at 125 g/ha (canarygrass; 125 g ai/ha, scale 0-100, read-out: Plant response rating, Canarygrass) of 40%, a pest or weed control at 16 g/ha (bromegrass, downy [1]; 16 g ai/ha) of 0% and a pest or weed control at 31 g/ha (bromegrass, downy [1]; 31 g ai/ha) of 0%. For the same compound, the pest or weed control at 62 g/ha (bromegrass, downy [1]; 62 g ai/ha) was 5%, the pest or weed control at 125 g/ha (bromegrass, downy [1]; 125 g ai/ha) was 5% and the pest or weed control at 16 g/ha (green foxtail; 16 g ai/ha, scale 0 (no effect) to 100 (complete control), read-out: Plant response rating, Foxtail, Green) was 0%. The pest or weed control at 31 g/ha (green foxtail; 31 g ai/ha, scale 0-100, read-out: Plant response rating, Foxtail, Green) was 0%, the pest or weed control at 62 g/ha (green foxtail; 62 g ai/ha, scale 0-100, read-out: Plant response rating, Foxtail, Green) was 20% and the pest or weed control at 125 g/ha (green foxtail; 125 g ai/ha, scale 0-100, read-out: Plant response rating, Foxtail, Green) was 100%. It also gave a pest or weed control at 16 g/ha (wild oat; 16 g ai/ha, scale 0-100, read-out: Plant response rating, Oat, Wild) of 5%, a pest or weed control at 31 g/ha (wild oat; 31 g ai/ha, scale 0 to 100 (0 no effect, 100 complete control), read-out: Plant response rating, Oat, Wild) of 0% and a pest or weed control at 62 g/ha (wild oat; 62 g ai/ha, scale 0 to 100 (0 no effect, 100 complete control), read-out: Plant response rating, Oat, Wild) of 5%. For the same compound, the pest or weed control at 125 g/ha (wild oat; 125 g ai/ha, scale 0 to 100 (0 no effect, 100 complete control), read-out: Plant response rating, Oat, Wild) was 10%, the pest or weed control at 16 g/ha (blackgrass; 16 g ai/ha, scale 0 (no effect) to 100 (complete control), read-out: Plant response rating, Blackgrass) was 0% and the pest or weed control at 31 g/ha (blackgrass; 31 g ai/ha, scale 0-100, read-out: Plant response rating, Blackgrass) was 0%. The pest or weed control at 62 g/ha (blackgrass; 62 g ai/ha, scale 0-100, read-out: Plant response rating, Blackgrass) was 25%, the pest or weed control at 125 g/ha (blackgrass; 125 g ai/ha, scale 0-100, read-out: Plant response rating, Blackgrass) was 30% and the pest or weed control at 16 g/ha (lambsquarters; 16 g ai/ha, scale 0-100, read-out: Plant response rating, Lambsquarters) was 55%. It also gave a pest or weed control at 31 g/ha (lambsquarters; 31 g ai/ha, scale 0 to 100 (0 no effect, 100 complete control), read-out: Plant response rating, Lambsquarters) of 60%, a pest or weed control at 62 g/ha (lambsquarters; 62 g ai/ha, scale 0 to 100 (0 no effect, 100 complete control), read-out: Plant response rating, Lambsquarters) of 60% and a pest or weed control at 125 g/ha (lambsquarters; 125 g ai/ha, scale 0 to 100 (0 no effect, 100 complete control), read-out: Plant response rating, Lambsquarters) of 60%. The pest or weed control at 16 g/ha (chamomile; 16 g ai/ha, scale 0-100, read-out: Plant response rating, Chamomile) was 0%, the pest or weed control at 31 g/ha (chamomile; 31 g ai/ha, scale 0 to 100 (0 no effect, 100 complete control), read-out: Plant response rating, Chamomile) was 0% and the pest or weed control at 62 g/ha (chamomile; 62 g ai/ha, scale 0 to 100 (0 no effect, 100 complete control), read-out: Plant response rating, Chamomile) was 0%. It also gave a pest or weed control at 125 g/ha (chamomile; 125 g ai/ha, scale 0 to 100 (0 no effect, 100 complete control), read-out: Plant response rating, Chamomile) of 0%, a pest or weed control at 16 g/ha (bluegrass [2]; 16 g ai/ha, scale 0 (no effect) to 100 (complete control), read-out: Plant response rating, Bluegrass) of 0% and a pest or weed control at 31 g/ha (bluegrass [2]; 31 g ai/ha, scale 0-100, read-out: Plant response rating, Bluegrass) of 0%. The pest or weed control at 62 g/ha (bluegrass [2]; 62 g ai/ha, scale 0-100, read-out: Plant response rating, Bluegrass) was 0%, the pest or weed control at 125 g/ha (bluegrass [2]; 125 g ai/ha, scale 0-100, read-out: Plant response rating, Bluegrass) was 10% and the pest or weed control at 16 g/ha (bluegrass [3]; 16 g ai/ha) was 0%. For the same compound, the pest or weed control at 31 g/ha (bluegrass [3]; 31 g ai/ha) was 5%, the pest or weed control at 62 g/ha (bluegrass [3]; 62 g ai/ha) was 5% and the pest or weed control at 125 g/ha (bluegrass [3]; 125 g ai/ha) was 10%. For the same compound, the pest or weed control at 16 g/ha (bromegrass, downy [4]; 16 g ai/ha, scale 0 (no effect) to 100 (complete control), read-out: Plant response rating, Bromegrass, Downy) was 0%, the pest or weed control at 31 g/ha (bromegrass, downy [4]; 31 g ai/ha, scale 0-100, read-out: Plant response rating, Bromegrass, Downy) was 0% and the pest or weed control at 62 g/ha (bromegrass, downy [4]; 62 g ai/ha, scale 0-100, read-out: Plant response rating, Bromegrass, Downy) was 0%. It also gave a pest or weed control at 125 g/ha (bromegrass, downy [4]; 125 g ai/ha, scale 0-100, read-out: Plant response rating, Bromegrass, Downy) of 10%, a plant injury at 16 g/ha (spring barley; 16 g ai/ha) of 10% and a plant injury at 31 g/ha (spring barley; 31 g ai/ha) of 10%. It also gave a plant injury at 62 g/ha (spring barley; 62 g ai/ha) of 10%, a plant injury at 125 g/ha (spring barley; 125 g ai/ha) of 15% and a plant injury at 16 g/ha (winter barley; 16 g ai/ha) of 5%. For the same compound, the plant injury at 31 g/ha (winter barley; 31 g ai/ha) was 5%, the plant injury at 62 g/ha (winter barley; 62 g ai/ha) was 5% and the plant injury at 125 g/ha (winter barley; 125 g ai/ha) was 10%.
